Earlier results, collected in patent publication US20150127309A1, “Method To Translate Biodynamic Spectrograms Into High-Content Information” (Purdue Research Foundation, priority 2013, published 2015).

How the values were obtained:
[1] = ref [78]
three Raf isoforms = details: in serum; refs [75-77]

CCCS(=O)(=O)Nc1ccc(F)c(C(=O)c2c[nH]c3ncc(-c4ccc(Cl)cc4)cc23)c1F [PLX4032]
toxicity [1]: minimal toxicity
tolerated serum levels ([1]; serum): up to 50 μM
activity against Raf isoforms (three Raf isoforms): active against three Raf isoforms at nanomolar concentrations
